Columns and labels:
hOAT3-MDCK cells = test: Cell viability assay (MTT) in hOAT3-MDCK cells; format: cell-based, canine; settings: pinocembrin 1, 10 and 50 μM, compared to vehicle-treated cells
Protocol: (§1) The hOAT1-MDCK cells and hOAT3-MDCK cells were treated with 1, 10, and 50 μM pinocembrin for 24 h, followed by a measurement of ^3H-PAH and ^3H-estrone sulfate cellular accumulation. […] The inhibitory effect of pinocembrin occurred in a concentration-dependent manner.
(§2) We determined whether the inhibitory effect of pinocembrin on hOAT1 and hOAT3. We studied whether pinocembrin could reduce the renal toxicity of tenofovir, a substrate of hOAT1 and hOAT3 known for inducing renal tubular dysfunction.
(§3) The confluent cells in 96-well plates were treated with pinocembrin for 48 h at 37 °C. After that, the cells were incubated with 0.5 mg/mL MTT solution for four hours. The MTT solution was removed, and DMSO (100 µL) was added to dissolve the crystal formazan. The formazan content was detected at a wavelength of 570 nm using a microplate reader. Cell viability was reported as a percentage of the vehicle-treated cells.

CYP1A2 = settings: cited from earlier work
P-gp = target: T1, P-gp (Homo sapiens, UniProt P08183); test: P-gp-mediated 3H-digoxin transepithelial transport in Caco-2 cell monolayers; format: cell-based; settings: 10 µM pinocembrin, 0-120 min, compared with vehicle control
T1 construct: Caco-2 cell monolayers, which express both P-gp and BCRP; host or cells: Caco-2
Protocol: The interactions of pinocembrin with P-gp and BCRP were determined by the measurement of P-gp-mediated ^3H-digoxin transport and BCRP-mediated ^3H-estrone sulfate transport in Caco-2 cell monolayers, which express both P-gp and BCRP [20]. The apical sides of the Caco-2 cell monolayers were incubated with a buffer containing ^3H-digoxin alone, ^3H-digoxin plus 10 µM pinocembrin or ^3H-digoxin plus 100 µM verapamil (P-gp inhibitor).
P-gp- and BCRP-mediated transport were measured by the transepithelial transport of their substrates (^3H-digoxin for P-gp and ^3H-estrone sulfate for BCRP) in Caco-2 cell monolayers. […] Caco-2 cells were cultured on membrane inserts (Corning Inc., Corning, NY, USA) for 21 days. […] The basolateral side was replaced with a transport buffer. The sample from the basolateral side was transferred to vials containing a liquid scintillation cocktail to measure radioactivity by a β-counter (Packard BioScience, Wellesley, MA, USA).

BCRP = tested on: BCRP; set-up: method as in PMID 22263589, PMID 23497885; settings: cited from earlier work
hOAT1 = target: T2, hOAT1 (Homo sapiens, UniProt Q4U2R8); test: hOAT1-mediated 6-CF uptake in hOAT1-MDCK cells (inhibitory potency and kinetics); format: cell-based
T2 construct: host or cells: MDCK
T2 sequence (Q4U2R8 1-563): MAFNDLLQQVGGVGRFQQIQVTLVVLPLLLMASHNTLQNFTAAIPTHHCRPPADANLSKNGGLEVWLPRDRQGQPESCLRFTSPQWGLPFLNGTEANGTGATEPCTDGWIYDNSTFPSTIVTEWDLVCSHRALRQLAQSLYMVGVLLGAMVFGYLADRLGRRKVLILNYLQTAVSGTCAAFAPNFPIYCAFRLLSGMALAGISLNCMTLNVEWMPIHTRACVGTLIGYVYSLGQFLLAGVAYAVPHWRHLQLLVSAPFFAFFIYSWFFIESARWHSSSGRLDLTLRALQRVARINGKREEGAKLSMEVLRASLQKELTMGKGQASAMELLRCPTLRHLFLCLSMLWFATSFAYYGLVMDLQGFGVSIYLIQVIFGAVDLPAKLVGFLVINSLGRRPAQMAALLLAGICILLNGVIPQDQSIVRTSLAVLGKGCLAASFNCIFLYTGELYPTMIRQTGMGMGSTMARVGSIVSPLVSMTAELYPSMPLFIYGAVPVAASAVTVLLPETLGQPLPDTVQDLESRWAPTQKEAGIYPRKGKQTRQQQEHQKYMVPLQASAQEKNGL
Protocol: To determine the inhibitory potency of pinocembrin on the hOAT1 and hOAT3 function, the IC50 of pinocembrin on the hOAT1- and hOAT3-mediated uptake of 6-carboxyfluorescein (6-CF), a fluorescent substrate of hOAT1 and hOAT3, was determined. […] Next, the inhibitory mechanism of pinocembrin was determined using a kinetic study.
The hOAT1-MDCK and hOAT3-MDCK cell monolayers were incubated at 37 °C with an uptake buffer containing 6-CF (10 µM), a fluorescent substrate of hOAT1 and hOAT3 [12], and pinocembrin (0–50 µM) for 10 min. Uptake was terminated by removing the uptake solution and washing four times with a cold buffer. The cell monolayers were lysed with 0.4 N NaOH for 30 min. The samples were transferred to 96-black well plates to measure the fluorescence intensity using a fluorescent plate reader (EnVision XCite 2105 Multimode Plate Reader, Packard BioScience, Wellesley, MA, USA) at excitation and emission wavelengths of 490 and 510, respectively. The IC50 of pinocembrin on hOAT1- and hOAT3-mediated 6-CF uptake was calculated in GraphPad Prism using sigmoidal concentration–response analysis using the equation Y = 100/(IC50/X)^HillSlope (X is the concentration, while Y is the normalized response). In addition, the estimated inhibitory constant (Ki) was calculated using the Cheng–Prusoff equation.
The hOAT1-MDCK and hOAT3-MDCK cell monolayers were incubated with 6-CF at increasing concentrations (0 to 100 µM) and in the absence or presence of 5 µM pinocembrin for 10 min. The kinetic parameters of 6-CF transport by hOAT1 and hOAT3 in the presence of pinocembrin were determined using nonlinear regression analysis to fit the Michaelis–Menten kinetic equation: V=Vmax[S]/Km+[S] where V is the rate of 6-CF transport, Vmax is the maximum rate of 6-CF transport, Km is the 6-CF concentration that results in half the maximum transport (Michaelis–Menten constant), and [S] is the concentration of 6-CF in the transport reaction.

hOAT1-MDCK cells = test: Cell viability assay (MTT) in hOAT1-MDCK cells; format: cell-based, canine
Protocol: as §1, §2, §3

CYP2A6 = tested on: CYP2A6; set-up: method as in PMID 34069400, doi:10.5562/cca3652, PMID 35721953; settings: cited from earlier work

T1 sequence (P08183 whole entry): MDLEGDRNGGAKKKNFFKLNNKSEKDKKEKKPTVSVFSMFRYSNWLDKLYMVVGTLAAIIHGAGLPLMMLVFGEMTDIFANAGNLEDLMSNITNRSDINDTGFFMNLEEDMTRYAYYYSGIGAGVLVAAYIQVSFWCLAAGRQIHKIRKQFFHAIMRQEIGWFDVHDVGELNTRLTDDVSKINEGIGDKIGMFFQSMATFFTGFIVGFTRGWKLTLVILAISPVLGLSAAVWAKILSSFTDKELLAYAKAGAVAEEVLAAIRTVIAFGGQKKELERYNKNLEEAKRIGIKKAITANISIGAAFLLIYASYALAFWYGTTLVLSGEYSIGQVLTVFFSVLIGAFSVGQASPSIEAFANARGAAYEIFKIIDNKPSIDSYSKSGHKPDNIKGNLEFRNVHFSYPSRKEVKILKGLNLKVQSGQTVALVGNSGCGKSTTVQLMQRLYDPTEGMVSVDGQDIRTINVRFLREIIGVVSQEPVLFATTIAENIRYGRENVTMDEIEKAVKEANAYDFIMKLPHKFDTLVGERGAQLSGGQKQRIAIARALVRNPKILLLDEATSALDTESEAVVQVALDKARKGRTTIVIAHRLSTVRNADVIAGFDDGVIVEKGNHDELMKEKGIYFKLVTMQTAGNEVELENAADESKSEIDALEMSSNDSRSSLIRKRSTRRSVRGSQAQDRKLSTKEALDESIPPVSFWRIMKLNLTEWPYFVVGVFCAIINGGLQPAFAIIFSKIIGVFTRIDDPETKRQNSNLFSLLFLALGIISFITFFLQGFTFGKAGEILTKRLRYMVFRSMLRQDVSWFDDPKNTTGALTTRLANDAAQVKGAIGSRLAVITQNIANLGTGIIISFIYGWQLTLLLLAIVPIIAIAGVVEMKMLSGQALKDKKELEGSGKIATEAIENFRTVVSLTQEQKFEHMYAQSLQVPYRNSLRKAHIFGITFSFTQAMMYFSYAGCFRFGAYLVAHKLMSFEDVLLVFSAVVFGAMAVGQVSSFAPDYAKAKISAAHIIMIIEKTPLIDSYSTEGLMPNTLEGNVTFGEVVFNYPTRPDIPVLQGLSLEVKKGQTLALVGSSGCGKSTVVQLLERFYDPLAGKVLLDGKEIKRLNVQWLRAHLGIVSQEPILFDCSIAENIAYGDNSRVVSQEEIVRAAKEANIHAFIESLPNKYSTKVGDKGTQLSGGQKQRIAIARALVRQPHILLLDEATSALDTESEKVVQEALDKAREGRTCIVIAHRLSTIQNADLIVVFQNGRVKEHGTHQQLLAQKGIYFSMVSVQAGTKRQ

Question: What does the source list for `O=C1C[C@@H](c2ccccc2)Oc2cc(O)cc(O)c21` [pinocembrin]?
Answer: cell viability (hOAT3-MDCK cells): did not affect cell viability; mechanism of CYP1A2 inhibition (CYP1A2): competitive; effect on the activity of CYP1A2 (CYP1A2; concentrations of 1–5 µM): shows an inhibitory effect; transport of 3H-digoxin from the apical to basolateral side (P-gp): did not alter; effect on BCRP (BCRP): weakly inhibited; Vmax of hOAT1-mediated 6-CF uptake, With Pinocembrin (hOAT1; 5 μM pinocembrin, 6-CF up to 100 μM, hOAT1-MDCK cells): 6.03 ± 1.02 nmol/min/cm^2; IC50 (hOAT1; hOAT1-MDCK cells, 6-CF 10 µM, mean ± S.D., three experiments): 1.47 ± 0.87 µM; Ki (hOAT1; hOAT1-MDCK cells, estimated with the Cheng–Prusoff equation): 0.81 ± 0.12 µM; inhibitory mechanism on hOAT1 transport function (hOAT1; kinetic study, 5 μM pinocembrin: Km increased, Vmax unchanged): competitively; cell viability (hOAT1-MDCK cells; pinocembrin 1, 10 and 50 μM, compared to vehicle-treated cells): did not affect cell viability; cell viability on co-treatment with tenofovir (hOAT1-MDCK cells; tenofovir plus pinocembrin, 48 h, compared with tenofovir-treated cells alone): considerably increased cell viability; effect on the activity of CYP2A6 (CYP2A6): does not affect
